Test results reported in patent US7524849B2, “5-arylpyrimidines as anticancer agents” (Wyeth Holdings Corporation, priority 2003, dated 2009).

Columns and labels:
COLO 205 cells = experiment: MTS cytotoxicity test with COLO 205 cells; assay type: cell-based, human; conditions: Homo sapiens, 72 h, three days with compound
Outline: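 COLO 205 human colon carcinoma cells, 1000/well, exposed for three days at 37 °C to nine 2-fold dilutions, top final concentration typically 5 μM. MTS formazan absorbance normalised to a time-0 plate; IC50 taken as concentration halfway between untreated maximum and high-drug minimum.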

KB cells = experiment: MTS cytotoxicity test with KB cells; assay type: cell-based, human; conditions: Homo sapiens, mean of 2 experiments
Description: (§1) Human cancer cell lines, unless otherwise noted, are obtained from the American Type Culture Collection (Rockville, Md.). The following drug-sensitive parental cell lines, and their derived drug-resistant counterparts, are obtained from the originators as listed: (a) S1 (parental line from a subclone of human colon carcinoma line LS174T) and derived S1-M1-3.2 (herein called S1-M1) which expresses the MXR drug transporter protein, are provided by Dr. L. Greenberger, Wyeth Research (Rabindran, S. K., He, H., Singh, M., Brown, E., Collins, K. I., Annable, T., and Greenberger, L. M. Reversal of a novel multidrug resistance mechanism in human colon carcinoma cells by fumitremorgin C. Cancer Res., 58: 5850-5858, 1998); (b) parental HL-60 human promyelocytic leukemia line and derived HL-60/ADR, which expresses the MRP1 drug transporter protein, are provided by Dr. M. Center, University of Kansas (McGrath, T., and Center, M. S. Adriamycin resistance in HL60 cells in the absence of detectable P-glycoprotein. Biochem. Biophys. […] J. Biol. Chem., 261: 7762-7770, 1986) via Dr. L. Greenberger, Wyeth Research.
(§2) The assay, which is sold in kit form by Promega (Madison, Wis.; CellTiter 96 AQueous Non-Radioactive Cell Proliferation Assay), is based on the conversion by viable cells, but not by dead cells, of the tetrazolium salt, MTS (3-(4,5-dimethylthiazol-2-yl)-5-(3-carboxymethoxyphenyl)-2-(4-sulphophenyl)-2H-tetrazolium, inner salt), into a water-soluble colored formazan which is detected by spectrophotometry. Compounds are tested at nine concentrations, in order to determine IC50 values. For the test procedure, cells are harvested by trypsinization, washed, counted and distributed to wells of 96-well flat-bottom microtiter plates at 1000 cells per well in 200 μL of medium. In addition, one row of wells on a separate plate receives cells as above (“time 0” plate). All plates are incubated at 37° in humidified 5% CO2 in air for about 24 hr.
(§3) On day 2, compounds for test are diluted and added to wells. Compounds are dissolved in DMSO at 10 mg/mL. For each compound, nine serial 2-fold dilutions are prepared in DMSO. Ten μL of each dilution in DMSO are transferred to 100 μL of medium, mixed well, and then 5 μL of this dilution are transferred in quadruplicate to wells containing cells. […] Plates are returned to the incubator for three days. At the time of drug addition to the experimental plates, the MTS assay is run on the “time 0” plate. This produces the “time 0 MTS value” which is related to the number of viable cells per well at the time of drug addition.
(§4) After three days of culture with test compounds (day 5 overall), the MTS assay is done on all wells of the experimental plates. The absorbance values of the quadruplicate sample wells are averaged and divided by the average of the “time 0” values. […] The nine values for each compound are plotted against concentration, and the concentration that produces a relative color yield half way between the maximum and minimum is taken as the IC50 value.

KB-8-5 cells = experiment: MTS cytotoxicity test with KB-8-5 cells (moderate P-glycoprotein); assay type: cell-based, human; conditions: Homo sapiens; KB 8.5 cells, mean of 2 experiments
Description: as §1, §2, §3, §4

KB-V1 cells = experiment: MTS cytotoxicity test with KB-V1 cells (very high P-glycoprotein); assay type: cell-based, human; conditions: Homo sapiens, KB-V1; KB VI cells, mean of 2 experiments
Description: as §1, §2, §3, §4

HL-60 cells = experiment: MTS cytotoxicity test with HL-60 cells; assay type: cell-based, human; conditions: Homo sapiens, mean of 2 experiments
Description: as §1, §2, §3, §4
(§5) HL-60/ADR cells overexpress the multidrug resistance protein MRP1 which mediates resistance to some chemotherapeutics (Gottesman, M. M., Fojo, T., and Bates, S. E. Multidrug resistance in cancer: role of ATP-dependent transporters. Nature Rev. Cancer, 2: 48-58, 2002). The IC50 values of representative examples of this invention, as well as reference compounds, on HL-60/ADR are compared to values on the sensitive parental HL-60 line.

HL-60/ADR cells = experiment: MTS cytotoxicity test with HL-60/ADR cells (MRP1); assay type: cell-based, human
Description: as §1, §2, §3, §4, §5

S1 cells = experiment: MTS cytotoxicity test with S1 cells; assay type: cell-based, human; conditions: Homo sapiens, mean of 2 experiments
Description: as §1, §2, §3, §4
as §5, with “S1-M1” for “HL-60/ADR”, “MXR transporter” for “multidrug resistance protein MRP1”, “Miltidrug” for “Multidrug”, “S1” for “HL-60”

S1-M1 cells = experiment: MTS cytotoxicity test with S1-M1 cells (MXR); assay type: cell-based, human
Description: as §1, §2, §3, §4
as §5, with “S1-M1” for “HL-60/ADR”, “MXR transporter” for “multidrug resistance protein MRP1”, “Miltidrug” for “Multidrug”, “S1” for “HL-60”

[1] = test system: highly purified tubulin (tubulin heterodimer); experiment: Competitive binding test, [3H]vinblastine; set-up: species or system bovine; conditions: competitor 100 μM, [3H]vinblastine 100 nM, percent of binding to control without competitor
Method: (§6) Medium is RPMI-1640 with L-glutamine, supplemented with 10% heat-inactivated fetal calf serum, 100 units/mL penicillin, and 100 μg/mL streptomycin (Gibco, Grand Island, N.Y.). Microtubule-associated protein (MAP)-rich tubulin, containing about 70% tubulin and 30% MAPs (#ML113), and highly purified tubulin (>99% pure, #TL238), both from bovine brain, are obtained from Cytoskeleton, Inc., Denver, Colo. PEM buffer (80 mM piperazine-N,N′-bis[2-ethanesulfonic acid], pH 6.9, 1 mM ethylene glycol-bis(β-aminoethyl ether)-N,N,N′,N′-tetraacetic acid, 1 mM magnesium chloride) and guanosine 5′-triphosphate (GTP) are also obtained from Cytoskeleton. […] [^3H]vinblastine, specific activity 9.60 Ci/mmol and MicroSpin G-50 columns are obtained from Amersham Biosciences (Piscataway, N.J.). […] Other reagents are obtained from Sigma (St. Louis, Mo.).
(§7) The binding of examples of this invention to highly purified tubulin is studied by competitive inhibition methods.
(§8) These solutions are incubated at 24° for 1 hr and then applied to MicroSpin G-50 columns which are centrifuged for 2 min at 3000 rpm in an Eppendorf 5415C microfuge. An aliquot of each column effluent (containing tubulin and bound radioligand) is mixed with scintillation fluid and counted in a liquid scintillation spectrometer. […] Quadruplicates are averaged, and the ability of the competitor to inhibit the binding of the radioligand is expressed as a percentage of control binding in the absence of any competitor.

[2] = test system: highly purified tubulin (tubulin heterodimer); experiment: Competitive binding test, [3H]colchicine; set-up: species or system bovine; conditions: competitor 100 μM, [3H]colchicine 50 nM, percent of binding to control without competitor
Method: as §6, §7, §8

Compound | IC50 (COLO 205 cells) [nM] | melting point [°C] | IC50 (KB cells) [nM] | IC50 (KB-8-5 cells) [nM] | IC50 (KB-V1 cells) [nM] | IC50 (HL-60 cells) [nM] | IC50 (HL-60/ADR cells; Homo sapiens, HL60/ADR, HL-60/ADR cells, mean of 2 experiments) [nM] | Ratio (HL-60/ADR cells; IC50 on HL-60/ADR cells/IC50 on HL-60 cells) | IC50 (S1 cells) [nM] | IC50 (S1-M1 cells; Homo sapiens, S1-M1 cells, mean of 2 experiments) [nM] | Ratio (S1-M1 cells; IC50 on S1-M1 cells/IC50 on S1 cells) | [3H]Vinblastine binding, Mean [1] | [3H]Colchicine binding, Mean [2]
Fc1cc(F)c(-c2c(Cl)nc(-n3ccnc3)nc2NCC(F)(F)F)c(F)c1 [Example 15, 6-Chloro-2-(1H-imidazol-1-yl)-N-(2,2,2-trifluoroethyl)-5-(2,4,6-trifluorophenyl)pyrimidin-4-amine] | 3030 | 168 to 170 | – | – | – | – | – | – | – | – | – | – | –
CN(C)CCCOc1cc(F)c(-c2c(Cl)nc(N(C)C#N)nc2NCC(F)(F)F)c(F)c1 [Example 19, 4-Chloro-5-{4-[3-(dimethylamino)propoxy]-2,6-difluorophenyl}-6-[(2,2,2-trifluoroethyl)amino]pyrimidin-2-yl(methyl)cyanamide] | 52 | – | 63 | 69 | 176 | 66 | 60 | 0.9 | 88 | 88 | 1.0 | 22 % of control | 116 % of control
CN(C)CCCOc1cc(F)c(-c2c(Cl)nc(-n3ccnc3)nc2NCC(F)(F)F)c(F)c1 [Example 31, 6-Chloro-5-{4-[3-(dimethylamino)propoxy]-2,6-difluorophenyl}-2-(1H-imidazol-1-yl)-N-(2,2,2-trifluoroethyl)pyrimidin-4-amine] | 682 | 47 to 49 | – | – | – | – | – | – | – | – | – | – | –
